Test results taken from patent publication US10681909B2, “Herbicidal triazoles” (FMC Corporation, priority 2014, dated 2020).

Assays:
[1] = test system: kochia; experiment: Test D preemergence; format: in vivo, Kochia scoparia; settings: for Plant response rating (0 to 100), Kochia: 16 g ai/ha, 0 is no effect, 100 is complete control; for Plant response rating: Kochia: scale 0 to 100
Description: (§1) Seeds of plant species selected from bluegrass (annual bluegrass, Poa annua), blackgrass (Alopecurus myosuroides), canarygrass (Phalaris minor), chickweed (common chickweed, Stellaria media), galium (catchweed bedstraw, Galium aparine), bromegrass, down (downy bromegrass, Bromus tectorum), Russian thistle (Salsola kali), field poppy (Papaver rhoeas), field violet (Viola arvensis), foxtail, green (green foxtail, Setaria viridis), deadnettle (henbit deadnettle, Lamium amplexicaule), ryegrass, Ital. (Italian ryegrass, Lolium multiflorum), kochia (Kochia scoparia), lambsquarters (Chenopodium album), oilseed rape (Brassica napus), pigweed (Amaranthus retroflexus), chamomile (scentless chamomile, Matricaria inodora), speedwell (bird's-eye speedwell, Veronica persica), barley, spring (spring barley, Hordeum vulgare), wheat, spring (spring wheat, Triticum aestivum), buckwheat, wild (wild buckwheat, Polygonum convolvulus), wild mustard (Sinapis arvensis), oat, wild (wild oat, Avena fatua), radish, wild (wild radish, Raphanus raphanistrum), […]), barley, winter (winter barley, Hordeum vulgare), and wheat, winter (winter wheat, Triticum aestivum) were planted into a silt loam soil and treated preemergence with test chemicals formulated in a non-phytotoxic solvent mixture which included a surfactant. At the same time, these species were planted in pots containing Sunshine Redi-Earth® planting medium comprising spaghnum peat moss, vermiculite, starter nutrients and dolomitic limestone and treated with postemergence applications of the test chemicals formulated in the same manner. Plants ranged in height from 2 to 18 cm (1- to 4-leaf stage). Treated plants and controls were maintained in a controlled growth environment for 14 to 21 d after which time all species were compared to controls and visually evaluated. […] A dash (-) response means no test result.

[2] = test system: field violet; experiment: Test D preemergence; format: in vivo, Viola arvensis; settings: for Plant response rating (0 to 100), Field Violet: 16 g ai/ha, 0 is no effect, 100 is complete control; for Plant response rating: Field Violet: scale 0 to 100
Description: as §1

[3] = test system: wild mustard; experiment: Test D postemergence; format: in vivo, Sinapis arvensis; settings: scale 0 to 100
Description: as §1

[4] = test system: wheat, winter; experiment: Test D postemergence; format: in vivo, Triticum aestivum; settings: scale 0 to 100
Description: as §1

[5] = test system: wheat, spring; experiment: Test D postemergence; format: in vivo, Triticum aestivum; settings: scale 0 to 100
Description: as §1

[6] = test system: nutsedge, yellow; experiment: Test C preemergence; format: in vivo, Cyperus esculentus; settings: for Plant response rating (scale of 0 to 100 where 0 is no effect and 100 is complete control): Nutsedge, Yellow, preemergence; for Nutsedge, Yellow plant response rating (0 to 100): Preemergence, visual rating after 13 to 15 d
Description: (§2) Seeds of plant species selected from blackgrass (Alopecurus myosuroides), ryegrass, Italian (Italian ryegrass, Lolium multiflorum), wheat (winter wheat, Triticum aestivum), galium (catchweed bedstraw, Galium aparine), corn (Zea mays), crabgrass, large (large crabgrass, Digitaria sanguinalis), foxtail, giant, (giant foxtail, Setaria faberii), johnsongrass (Sorghum halepense), lambsquarters (Chenopodium album), morningglory (Ipomoea coccinea), nutsedge, yellow (yellow nutsedge, Cyperus esculentus), pigweed (Amaranthus retroflexus), ragweed (common ragweed, Ambrosia elatior), soybean (Glycine max), barnyardgrass (Echinochloa crus-galli), oilseed rape (Brassica napus), waterhemp (common waterhemp, Amaranthus rudis), and velvetleaf (Abutilon theophrasti) were planted into a blend of loam soil and sand and treated preemergence with test chemicals formulated in a non-phytotoxic solvent mixture which included a surfactant. At the same time, plants selected from these crop and weed species and also chickweed (common chickweed, Stellaria media), oat, wild (wild oat, Avena fatua), and kochia (Kochia scoparia), were planted in pots containing Sunshine Redi-Earth® planting medium comprising spaghnum peat moss, vermiculite, starter nutrients and dolomitic limestone and treated with postemergence applications of test chemicals formulated in the same manner. Plants ranged in height from 2 to 18 cm (1- to 4-leaf stage) for postemergence treatments. […] A dash (-) response means no test result.

[7] = test system: oilseed rape; experiment: Test C preemergence; format: in vivo, Brassica napus; settings: for Plant response rating (scale of 0 to 100 where 0 is no effect and 100 is complete control): Oilseed Rape, preemergence; for Oilseed Rape plant response rating (0 to 100): Preemergence, visual rating after 13 to 15 d
Description: as §2

[8] = test system: wild mustard; experiment: Test D preemergence; format: in vivo, Sinapis arvensis; settings: for Plant response rating (0 to 100), Mustard, Wild: 16 g ai/ha, 0 is no effect, 100 is complete control; for Plant response rating: Mustard, Wild: scale 0 to 100
Description: as §1

[9] = test system: blackgrass; experiment: Test D preemergence; format: in vivo, Alopecurus myosuroides; settings: for Plant response rating (0 to 100), Blackgrass: 16 g ai/ha, 0 is no effect, 100 is complete control; for Plant response rating: Blackgrass: scale 0 to 100
Description: as §1

| Structure (SMILES) | Plant response rating (0 to 100), Kochia [1] | Plant response rating: Kochia ([1]; 62 g ai/ha) | Plant response rating: Kochia ([1]; 125 g ai/ha) | Plant response rating (0 to 100), Field Violet [2] | Plant response rating: Field Violet ([2]; 62 g ai/ha) | Plant response rating: Field Violet ([2]; 125 g ai/ha) | Plant response rating: Mustard, Wild ([3]; 16 g ai/ha) | Plant response rating: Mustard, Wild ([3]; 31 g ai/ha) | Plant response rating: Mustard, Wild ([3]; 62 g ai/ha) | Plant response rating: Mustard, Wild ([3]; 125 g ai/ha) | Plant response rating: Wheat, Winter ([4]; 16 g ai/ha) | Plant response rating: Wheat, Winter ([4]; 31 g ai/ha) | Plant response rating: Wheat, Winter ([4]; 62 g ai/ha) | Plant response rating: Wheat, Winter ([4]; 125 g ai/ha) | Plant response rating: Wheat, Spring ([5]; 16 g ai/ha) | Plant response rating: Wheat, Spring ([5]; 31 g ai/ha) | Plant response rating: Wheat, Spring ([5]; 62 g ai/ha) | Plant response rating: Wheat, Spring ([5]; 125 g ai/ha) | Plant response rating (0 to 100), Mustard, Wild [8] | Plant response rating: Mustard, Wild ([8]; 62 g ai/ha) | also measured |
| --- | --- | --- | --- | --- | --- | --- | --- | --- | --- | --- | --- | --- | --- | --- | --- | --- | --- | --- | --- | --- | --- |
| FC(F)(F)COc1nc(-c2ccccc2)nn1Cc1ccnc(C(F)(F)F)c1 [Compound 24] | 85 | 90 | 90 | 0 | 80 | 100 | 65 | 70 | 100 | 100 | 15 | 15 | 20 | 20 | 15 | 15 | 25 | 15 | 65 | 100 | Plant response rating (scale of 0 to 100 where 0 is no effect and 100 is complete control) ([6]; 125 g ai/ha): 5; Plant response rating (scale of 0 to 100 where 0 is no effect and 100 is complete control) ([6]; 250 g ai/ha): 15; Nutsedge, Yellow plant response rating (0 to 100) ([6]; 31 g ai/ha): 0; Nutsedge, Yellow plant response rating (0 to 100) ([6]; 62 g ai/ha): 0; Plant response rating (scale of 0 to 100 where 0 is no effect and 100 is complete control) ([7]; 125 g ai/ha): 35; Plant response rating (scale of 0 to 100 where 0 is no effect and 100 is complete control) ([7]; 250 g ai/ha): 98; Oilseed Rape plant response rating (0 to 100) ([7]; 31 g ai/ha): 5; Oilseed Rape plant response rating (0 to 100) ([7]; 62 g ai/ha): 30; Plant response rating: Mustard, Wild ([8]; 125 g ai/ha): 100; Plant response rating (0 to 100), Blackgrass [9]: 20; Plant response rating: Blackgrass ([9]; 31 g ai/ha): 45; Plant response rating: Blackgrass ([9]; 62 g ai/ha): 50; Plant response rating: Blackgrass ([9]; 125 g ai/ha): 65 |
| CCOc1nc(-c2ccccc2)nn1Cc1ccnc(C(F)(F)F)c1 [Compound 27] | 85 | 95 | 100 | 85 | 98 | 100 | 80 | 100 | 100 | 100 | 25 | 25 | 30 | 30 | 15 | 15 | 20 | 35 | 80 | 100 | Plant response rating (scale of 0 to 100 where 0 is no effect and 100 is complete control) ([6]; 125 g ai/ha): 35; Plant response rating (scale of 0 to 100 where 0 is no effect and 100 is complete control) ([6]; 250 g ai/ha): 60; Nutsedge, Yellow plant response rating (0 to 100) ([6]; 31 g ai/ha): 5; Nutsedge, Yellow plant response rating (0 to 100) ([6]; 62 g ai/ha): 10; Plant response rating (scale of 0 to 100 where 0 is no effect and 100 is complete control) ([7]; 125 g ai/ha): 100; Plant response rating (scale of 0 to 100 where 0 is no effect and 100 is complete control) ([7]; 250 g ai/ha): 100; Oilseed Rape plant response rating (0 to 100) ([7]; 31 g ai/ha): 90; Oilseed Rape plant response rating (0 to 100) ([7]; 62 g ai/ha): 90; Plant response rating: Mustard, Wild ([8]; 125 g ai/ha): 100; Plant response rating (0 to 100), Blackgrass [9]: 25; Plant response rating: Blackgrass ([9]; 31 g ai/ha): 30; Plant response rating: Blackgrass ([9]; 62 g ai/ha): 45; Plant response rating: Blackgrass ([9]; 125 g ai/ha): 70 |
| COc1nc(-c2ccc(Cl)cc2)nn1Cc1ccnc(C(F)(F)F)c1 [Compound 28] | 85 | 85 | 95 | 65 | 95 | 100 | 90 | 100 | 100 | 100 | 15 | 20 | 25 | 20 | 10 | 15 | 20 | 25 | 90 | 100 | Plant response rating: Mustard, Wild ([8]; 125 g ai/ha): 100; Plant response rating (0 to 100), Blackgrass [9]: 30; Plant response rating: Blackgrass ([9]; 31 g ai/ha): 30; Plant response rating: Blackgrass ([9]; 62 g ai/ha): 50; Plant response rating: Blackgrass ([9]; 125 g ai/ha): 50 |
| Fc1ccc(-c2nc(OCC(F)(F)F)n(Cc3ccnc(C(F)(F)F)c3)n2)cc1 [Compound 30] | 85 | 90 | 95 | 100 | 100 | 100 | 90 | 100 | 100 | 100 | 15 | 15 | 25 | 35 | 25 | 30 | 35 | 45 | 90 | 100 | Plant response rating (scale of 0 to 100 where 0 is no effect and 100 is complete control) ([6]; 125 g ai/ha): 0; Plant response rating (scale of 0 to 100 where 0 is no effect and 100 is complete control) ([6]; 250 g ai/ha): 10; Nutsedge, Yellow plant response rating (0 to 100) ([6]; 31 g ai/ha): 0; Nutsedge, Yellow plant response rating (0 to 100) ([6]; 62 g ai/ha): 0; Plant response rating (scale of 0 to 100 where 0 is no effect and 100 is complete control) ([7]; 125 g ai/ha): 100; Plant response rating (scale of 0 to 100 where 0 is no effect and 100 is complete control) ([7]; 250 g ai/ha): 100; Oilseed Rape plant response rating (0 to 100) ([7]; 31 g ai/ha): 80; Oilseed Rape plant response rating (0 to 100) ([7]; 62 g ai/ha): 80; Plant response rating: Mustard, Wild ([8]; 125 g ai/ha): 100; Plant response rating (0 to 100), Blackgrass [9]: 30; Plant response rating: Blackgrass ([9]; 31 g ai/ha): 45; Plant response rating: Blackgrass ([9]; 62 g ai/ha): 60; Plant response rating: Blackgrass ([9]; 125 g ai/ha): 70 |
